In patent publication US11891400B2, “Pyrazolo[1,5-a]pyrimidine-3-carboxamide derivatives useful in the treatment of psoriasis and systemic lupus erythematosus” (Eli Lilly and Company, priority 2018, dated 2024):

Columns and labels:
TYK2 JH2 = target: T1, TYK2 JH2 (Homo sapiens, UniProt P29597); experiment: Binding to TYK2 JH2 by Scintillation Proximity Assay; details: His-tagged TYK2 JH2, 3H-labelled ligand 50 nM, SPA; geometric mean (SEM); read-out: IC50, inhibition of radioligand binding to TYK2 JH2
T1 construct: The pseudokinase domain (JH2) of human JAK (Janus family of cytoplasmic tyrosine kinases) family tyrosine kinase 2 (TYK2); made in house
T1 sequence (P29597 589-875 limits assumed): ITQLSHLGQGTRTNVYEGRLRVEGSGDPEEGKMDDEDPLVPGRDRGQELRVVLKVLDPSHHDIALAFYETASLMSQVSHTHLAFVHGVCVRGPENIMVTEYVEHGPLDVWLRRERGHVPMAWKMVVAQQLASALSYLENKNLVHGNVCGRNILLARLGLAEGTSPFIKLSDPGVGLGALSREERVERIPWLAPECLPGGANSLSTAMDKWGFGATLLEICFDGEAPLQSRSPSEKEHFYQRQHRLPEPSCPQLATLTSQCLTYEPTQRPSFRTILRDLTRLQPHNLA
Description: The pseudokinase domain (JH2) of human JAK (Janus family of cytoplasmic tyrosine kinases) family tyrosine kinase 2 (TYK2) with an N-terminal His^6 tag is expressed in baculovirus and purified by Ni-NTA affinity and size-exclusion chromatography. Yttrium (YSi) His-Tag scintillation proximity assay (SPA) beads (cat #PRNQ0096) are purchased from PerkinElmer Life Sciences. ^3H—N-[(1R)-1-[3-[8-Methyl-5-(methylamino)-8H-imidazo[4,5-d]thiazolo[5,4-b]pyridin-2-yl]phenyl]ethyl]-2-(methylsulfonyl) benzamide is synthesized by Quotient Bio with a specific activity of 63 Ci/mmol and a concentration 6.78 μM stored in ethanol (cat #TRQ41678) (See also e.g., J. S. Tokarski, et al., J. Biol. Chem., vol. 290(17), pages 11061-11074 (2015) and R. Moslin, et al., Med. Chem. Commun., vol. 8, pages 700-712 (2017)).
A 3 fold, 10 point serial dilution of Example 1 is prepared in 100% DMSO (200 nL) and transferred to a 96 well, white, clear bottom, non-binding surface assay plate (Costar 3604) using acoustic liquid handling. Control wells used to determine percent inhibition contained either DMSO (200 nL) or cold, unlabeled inhibitor (200 nL, 10 mM, 200 μM final concentration). […] After 15 minutes at room temperature, radioactivity is counted using the Trilux Microbeta.

[1] = system: IFNα signaling through pSTAT1 in TF1 cells; experiment: Inhibition of IFNα signaling through pSTAT1 in TF1 cells; assay type: cell-based; details: Homo sapiens, TF-1, 20 min, 10 ng/ml IFNα2 for 20 minutes, AlphaLISA, geometric mean (SEM), read-out: IC50, inhibition of p-Stat1 (Tyr701)
Description: TF1 cells (ATCC, CL-2003) are grown in RPMI 1640 (GIBCO) supplemented with 10% dialyzed FBS, 0.1 mg/ml Ampicillin and 2 ng/mL granulocyte macrophage colony stimulating factor. TF1 cells (100 K per well) are seeded in a 96-well poly-D-lysine coated plates in serum-free DMEM and incubated overnight at 37° C. under 5% CO2. Example 1 is serially diluted in DMSO, added to the cells, and incubated at 37° C. for 1 hr. Cells are then stimulated with 10 ng/ml IFNα2 at 37° C. for 20 minutes. After removing the medium, the cells are lysed in buffer containing Halt protease and phosphatase inhibitor cocktail (Thermo Scientific #78441) at room temperature for 30 minutes. The amount of p-Stat1 (Tyr701) is quantified as light emission at 615 nm using the AlphaLISA SureFire Ultra p-Stat1 (Tyr701) assay kit (Perkin Elmer #ALSU-PST1-A50K) following the vendor's recommended protocol. Percent inhibition at each inhibitor concentration is calculated and fit to the four parameter nonlinear logistic equation using Genedata Screener® to give an IC50 for the compound of Example 1 of 0.008 μM (±0.001 μM, n=5) and for the compound of Example 2 of 0.010 μM (±0.001 μM, n=4) expressed as GeoMetric means with the standard error of the mean (SEM).

[2] = system: IL-23 signaling (STAT3 phosphorylation) in Kit225 cells; experiment: IL23 pSTAT3 AlphaLISA assay; assay type: cell-based; details: 0.5 h, IL23 25 ng/ml for 30 minutes, geometric mean (SEM), read-out: relative IC50, IL23 pSTAT3
Description: IL2-dependent Kit225 cells expressing endogenous IL23 receptors are stably transduced with the Lenti STAT3 Reporter linked to firefly luciferase (SABiosciences CLS-6028L). These cells are used to monitor TYK2 activity by quantifying gene expression caused by STAT3 phosporylation following induction by IL23 in the presence of IL2 using AlphaLISA technology (TGR Biosciences ALSU-TST3-A50K). The cells are grown in RPMI 1640 (Gibco 22400) supplemented with 10% FBS (Invitrogen 10082), 1× Pen/Strep (Gibco 15140-122), 200 ng/ml Puromycin (Sigma P9620), and fresh 10 ng/ml recombinant human IL2 (R&D Systems 202-IL-50). For assay preparation, cells are dispensed into Biocoat black poly-d-lysine coated clear bottom 384-well plates (Becton Dickinson Bio-Coat 35-4640) in DMEM (Sigma D5796) at 300,000 cells/well and allowed to incubate overnight at 37° C. Compounds solubilized in DMSO are serially diluted 1:3 to produce a 10-point concentration response curve (final DMSO=0.1%). Cells are pre-incubated with Example 1 for 1 hour at 37° C., then stimulated with IL23 (25 ng/ml final) for 30 minutes. […] The AlphaLISA reaction is performed following the vendor's recommended protocol, and the luciferase levels are measured using an Envision plate reader (Perkin Elmer). […]

IC50 (TYK2 JH2) [µM]	IC50 [1] [µM]	IC50 [2] [µM]	SMILES
0.04	0.01	0.01	CCOc1ccccc1Nc1cc(NC)n2ncc(C(=O)N[C@@H]3CCN(C)C3=O)c2n1 (single isomer, unassigned) [Example 2]
0.045	0.008	0.009	CNc1cc(Nc2ccccc2OC)nc2c(C(=O)N[C@@H]3CCN(C)C3=O)cnn12 [Example 1, 5-(2-Methoxyanilino)-7-(methylamino)-N-[(3R)-1-methyl-2-oxo-pyrrolidin-3-yl]pyrazolo[1,5-a]pyrimidine-3-carboxamide]
